Results: BindingDB's records for doi:10.1021/jm00384a019 (1987)

The compounds below were run against DNA polymerase alpha (Cricetulus griseus) (assay: Compound was evaluated for the concentration which gives half-maximal inhibition of Chinese Hamster Ovary DNA polymerase alpha).

Structure (SMILES)	Ki [µM]
CCCCc1ccc(Nc2nc(Cl)c3[nH]cnc3n2)cc1 [(4-Butyl-phenyl)-(6-chloro-9H-purin-2-yl)-amine]	2.6
CCCCc1ccc(Nc2nc(N)c3[nH]cnc3n2)cc1 [N*2*-(4-Butyl-phenyl)-9H-purine-2,6-diamine]	14.4
CCCCc1ccc(Nc2ncc3[nH]cnc3n2)cc1 [(4-Butyl-phenyl)-(9H-purin-2-yl)-amine]	5

Compounds with a lower Ki, results first:

Ki [µM]	Structure (SMILES)
1	CCCCc1ccc(Nc2nc(SC)c3[nH]cnc3n2)cc1 [(4-Butyl-phenyl)-(6-methylsulfanyl-9H-purin-2-yl)-amine]
1.4	CCCCc1ccc(Nc2nc(OC)c3[nH]cnc3n2)cc1 [(4-Butyl-phenyl)-(6-methoxy-9H-purin-2-yl)-amine]
